Laboratory results taken from patent publication US20090111798A1, “5,6-DIHYDRO-1H-PYRIDIN-2-ONE COMPOUNDS” (priority 2006, published 2009).

Molecular target: NS5B polymerase (Hepatitis C virus genotype 1b, UniProt P26663)
Experiment: biochemical
Details: NS5B polymerase inhibition; 20 nM enzyme, 75 min at 28° C.
Experimental: Compounds were tested for HCV polymerase inhibition. Assays were performed in a 96-well streptavidin-coated FlashPlate using 20 nM enzyme, 0.5μ Ci of [α-^33P]GTP, 0.6 μM GTP, and 250 nM 5′biotinylated oligo (rG13)/poly rC in 20 mM Tris-HCl, pH 7.5, 5 mM MgCl2, 5 mM dithiothreitol, 0.1 g/L bovine serum albumin, and 100 U/mL RNAse inhibitor. The reaction was stopped by aspiration after 75 min at 28° C. and the plate was washed several times. After washing and drying the plate, incorporated radioactivity was counted using a Microbeta scintillation counter. IC50 values were calculated relative to the uninhibited control and inhibition data were fitted to a 4-parameter IC50 equation.

Sequence of NS5B polymerase (P26663 2420-3010): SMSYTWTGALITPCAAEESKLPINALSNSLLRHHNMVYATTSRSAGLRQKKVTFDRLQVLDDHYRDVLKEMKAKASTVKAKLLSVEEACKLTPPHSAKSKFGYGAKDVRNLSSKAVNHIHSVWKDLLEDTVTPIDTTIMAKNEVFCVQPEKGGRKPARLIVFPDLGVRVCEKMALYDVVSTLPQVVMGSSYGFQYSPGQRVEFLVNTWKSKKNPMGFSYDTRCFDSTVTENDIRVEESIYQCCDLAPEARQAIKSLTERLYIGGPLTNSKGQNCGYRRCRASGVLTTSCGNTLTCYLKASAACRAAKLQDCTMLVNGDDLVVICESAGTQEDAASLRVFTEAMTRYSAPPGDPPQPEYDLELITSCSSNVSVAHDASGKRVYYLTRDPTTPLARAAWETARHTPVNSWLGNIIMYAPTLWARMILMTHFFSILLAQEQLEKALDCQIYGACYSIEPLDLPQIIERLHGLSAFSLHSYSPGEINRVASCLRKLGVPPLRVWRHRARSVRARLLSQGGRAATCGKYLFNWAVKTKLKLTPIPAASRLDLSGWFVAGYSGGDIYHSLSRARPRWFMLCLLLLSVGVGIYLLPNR

SMILES | IC50
O=C1C(C2=NS(=O)(=O)c3cc(C4CCCS4(=O)=O)ccc3N2)=C(O)[C@@H]2CCC[C@@H]2N1Cc1ccc(F)cc1 (mixture of isomers) [Example 45, (4aR,7aS)-3-[7-(1,1-Dioxo-tetrahydro-1λ^6-thiophen-2-yl)-1,1-dioxo-1,4-dihydro-1λ^6-benzo[1,2,4]thiadiazin-3-yl]-1-(4-fluoro-benzyl)-4-hydroxy-1,4a,5,6,7,7a-hexahydro-[1]pyrindin-2-one] | 20 to 100 nM
O=C1C(C2=NS(=O)(=O)c3ccccc3N2)=C(O)C2CCCC2N1Cc1ccc(F)cc1 (mixture of isomers) [Example 51] | 100 to 1000 nM
CS(=O)(=O)Nc1ccc2c(c1)S(=O)(=O)N=C(C1=C(O)C3CCCCCC3N(CCC3CC3)C1=O)N2 (mixture of isomers) [Example 58, N-{3-[1-(2-Cyclopropyl-ethyl)-4-hydroxy-2-oxo-2,4a,5,6,7,8,9,9a-octahydro-1H-cyclohepta[b]pyridin-3-yl]-1,1-dioxo-1,4-dihydro-1λ^6-benzo[1,2,4]thiadiazin-7-yl}-methanesulfonamide] | 20 to 100 nM
CS(=O)(=O)Nc1ccc2c(c1)S(=O)(=O)N=C(C1=C(O)[C@@H]3CCC[C@@H]3N(Cc3ccc(F)cc3)C1=O)N2 (relative stereo) [Example 1, cis-N-{3-[1-(4-Fluoro-benzyl)-4-hydroxy-2-oxo-2,4-a,5,6,7,7a-hexahydro-1H-[1]pyrindin-3-yl]-1,1-dioxo-1,4-dihydro-1λ^6-benzo[1,2,4]thiadiazin-7-yl}-methanesulfonamide] | < 20 nM
CS(=O)(=O)Nc1ccc2c(c1)S(=O)(=O)N=C(C1=C(O)[C@@H]3CCC[C@@H]3N(Cc3ccccn3)C1=O)N2 (relative stereo) [Example 4, cis-N-[3-(4-Hydroxy-2-oxo-1-pyridin-2-ylmethyl-2,4-a,5,6,7,7a-hexahydro-1H-[1]pyrindin-3-yl)-1,1-dioxo-1,4-dihydro-1λ^6-benzo[1,2,4]thiadiazin-7-yl]-methanesulfonamide] | 100 to 1000 nM
CS(=O)(=O)Nc1ccc2c(c1)S(=O)(=O)N=C(C1=C(O)[C@@H]3CCC[C@@H]3N(Cc3ccc(F)cn3)C1=O)N2 (relative stereo) [Example 5, cis-N-{3-[1-(5-Fluoro-pyridin-2-ylmethyl)-4-hydroxy-2-oxo-2,4-a,5,6,7,7a-hexahydro-1H-[1]pyrindin-3-yl]-1,1-dioxo-1,4-dihydro-1λ^6-benzo[1,2,4]thiadiazin-7-yl}-methanesulfonamide] | 100 to 1000 nM
CN(C)CCN1C(=O)C(C2=NS(=O)(=O)c3cc(NS(C)(=O)=O)ccc3N2)=C(O)[C@@H]2CCC[C@@H]21 (relative stereo) [Example 6] | 1000 to 100000 nM
CS(=O)(=O)Nc1ccc2c(c1)S(=O)(=O)N=C(C1=C(O)[C@@H]3CCC[C@@H]3N(Cc3ccccc3)C1=O)N2 (relative stereo) [Example 7, cis-N-[3-(1-Benzyl-4-hydroxy-2-oxo-2,4-a,5,6,7,7a-hexahydro-1H-[1]pyrindin-3-yl)-1,1-dioxo-1,4-dihydro-1λ^6-benzo[1,2,4]thiadiazin-7-yl]-methanesulfonamide] | 20 to 100 nM
CS(=O)(=O)Nc1ccc2c(c1)S(=O)(=O)N=C(C1=C(O)[C@@H]3CCC[C@@H]3N(Cc3cccc(F)c3)C1=O)N2 (relative stereo) [Example 8] | < 20 nM
CS(=O)(=O)Nc1ccc2c(c1)S(=O)(=O)N=C(C1=C(O)[C@@H]3CCC[C@@H]3N(CCc3ccccc3)C1=O)N2 (relative stereo) [Example 9, cis-N-[3-(4-Hydroxy-2-oxo-1-phenethyl-2,4-a,5,6,7,7a-hexahydro-1H-[1]pyrindin-3-yl)-1,1-dioxo-1,4-dihydro-1λ^6-benzo[1,2,4]thiadiazin-7-yl]-methanesulfonamide] | 100 to 1000 nM
CS(=O)(=O)Nc1ccc2c(c1)S(=O)(=O)N=C(C1=C(O)[C@@H]3CCC[C@@H]3N(C3CCCC3)C1=O)N2 (relative stereo) [Example 10, cis-N-[3-(1-Cyclopentyl-4-hydroxy-2-oxo-2,4-a,5,6,7,7a-hexahydro-1H-[1]pyrindin-3-yl)-1,1-dioxo-1,4-dihydro-1λ^6-benzo[1,2,4]thiadiazin-7-yl]-methanesulfonamide] | 1000 to 100000 nM
